This passage reports IC50 and Ki results from patent US11780849B2, “Imino sulfanone inhibitors of ENPP1” (Volastra Therapeutics, Inc., priority 2020, dated 2023).

Like-named read-outs stand apart in the source and are kept apart here. Some results are limits rather than exact numbers.

Assay [1] addresses T1, ENPP-1 ECD (Homo sapiens (Human), UniProt P22413). Put plainly: Assay 1: inhibition of ENPP1 hydrolysis of 2′,3′-cGAMP (AMP-Glo, […] enzyme).
Description: Assay 1: Test compounds were plated in a 3× dilution scheme in a 384 well plate. […] AMP Detection solution (100 μL) was added to each well, the plate centrifuged and incubated for 60 min.
The target in assay [2] is T1, ENPP-1 ECD. Put plainly: Assay 2: inhibition of ENPP1 hydrolysis of 2′,3′-cGAMP (AMP-Glo, […] enzyme).
Description: Assay 2: Compared to the conditions in Assay 1, this assay has a larger dynamic range and ensures the system is under steady-state conditions by reducing the enzyme concentration in the assay.
Test compounds were plated in a 3× dilution scheme in a 384 well plate. […] AMP Detection solution (10 μL) was added to each well, the plate centrifuged and incubated for 60 min.
Setting [3] is: Assay 1 (IC50), ENPP1 hydrolysis of 2′,3′-cGAMP, AMP-Glo.
Where [4] appears, read: Assay 1 (IC50), inhibition of ENPP1 hydrolysis of 2′,3′-cGAMP, no unit in Table 18 (Table 17 legend for this assay uses nM).
[5] abbreviates: Assay 2 (KI), ENPP1 hydrolysis of 2′,3′-cGAMP, AMP-Glo, […] ENPP-1, 24 μM cGAMP.
Where [6] appears, read: Assay 2 (KI), inhibition of ENPP1 hydrolysis of 2′,3′-cGAMP, no unit in Table 18 (Table 17 legend for this assay uses nM).
The mark [7] stands for this setting: read-out: Assay 1 (IC50), ENPP1 hydrolysis of 2′,3′-cGAMP, AMP-Glo.
[8] abbreviates: read-out: Assay 1 (IC50), inhibition of ENPP1 hydrolysis of 2′,3′-cGAMP, no unit in Table 18 (Table 17 legend for this assay uses nM).
The mark [9] stands for this setting: read-out: Assay 2 (KI), ENPP1 hydrolysis of 2′,3′-cGAMP, AMP-Glo, […] ENPP-1, 24 μM cGAMP.
The mark [10] stands for this setting: read-out: Assay 2 (KI), inhibition of ENPP1 hydrolysis of 2′,3′-cGAMP, no unit in Table 18 (Table 17 legend for this assay uses nM).

T1 sequence (P22413 98-925): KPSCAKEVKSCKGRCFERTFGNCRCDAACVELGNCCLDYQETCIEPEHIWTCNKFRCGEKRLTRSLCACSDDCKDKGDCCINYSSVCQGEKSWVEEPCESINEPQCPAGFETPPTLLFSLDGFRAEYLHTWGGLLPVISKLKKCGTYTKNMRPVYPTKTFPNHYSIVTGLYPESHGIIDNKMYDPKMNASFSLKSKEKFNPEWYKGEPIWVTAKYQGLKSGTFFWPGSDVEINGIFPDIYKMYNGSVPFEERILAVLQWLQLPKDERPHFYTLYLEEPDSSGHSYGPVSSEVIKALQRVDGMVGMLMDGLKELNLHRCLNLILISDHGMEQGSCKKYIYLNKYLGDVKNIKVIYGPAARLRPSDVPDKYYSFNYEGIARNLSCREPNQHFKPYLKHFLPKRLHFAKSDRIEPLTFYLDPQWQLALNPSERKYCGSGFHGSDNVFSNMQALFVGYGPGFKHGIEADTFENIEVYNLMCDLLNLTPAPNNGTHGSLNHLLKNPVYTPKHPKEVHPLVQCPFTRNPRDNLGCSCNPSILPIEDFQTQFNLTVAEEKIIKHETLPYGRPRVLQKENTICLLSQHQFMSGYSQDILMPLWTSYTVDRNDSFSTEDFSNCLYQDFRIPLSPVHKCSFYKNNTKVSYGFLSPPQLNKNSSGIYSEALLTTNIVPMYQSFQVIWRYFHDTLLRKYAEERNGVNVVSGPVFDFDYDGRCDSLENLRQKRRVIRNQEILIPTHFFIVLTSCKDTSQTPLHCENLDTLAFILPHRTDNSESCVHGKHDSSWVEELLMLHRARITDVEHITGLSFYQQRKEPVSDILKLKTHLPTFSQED

By IC50 is commonly meant the concentration that gives 50% inhibition. The term Ki denotes a measure of affinity in units of concentration, obtained from inhibition or displacement. As to `COc1cc2ncnc(Oc3ccc(S(C)(=N)=O)cc3)c2cc1OC` (stereo not shown) [Compound 18, (4-((6,7-dimethoxyquinazolin-4-yl)oxy)phenyl)(imino)(methyl)-λ^6-sulfanone], the IC50 in assay [1] (setting [3]) was 10 to 1000 nM; in assay [1] (setting [4]) it was 180 nM. Besides, the Ki in assay [2] (setting [5]) is 3 to 300 nM; in assay [2] (setting [6]) it was 24 nM.
As to `CS(=N)(=O)c1ccc(Oc2cnnc3ccccc23)cc1` (stereo not shown) [Compound 22, (4-(cinnolin-4-yloxy)phenyl)(imino)(methyl)-λ^6-sulfanone], the IC50 in assay [1] (setting [4]) is 1200 nM; in assay [1] (setting [7]), more than 1000 nM. Besides, the Ki was more than 300 nM in assay [2] (setting [5]) and 310 nM in assay [2] (setting [6]).
In the case of `COc1cc2ncc(C#N)c(Oc3ccc([S@](C)(=N)=O)cc3)c2cc1F` [Compound 44b], the IC50 in assay [1] (setting [7]) is more than 1000 nM; in assay [1] (setting [8]) it was 1900 nM. Moreover, the Ki in assay [2] (setting [9]) is more than 300 nM; in assay [2] (setting [10]), 350 nM.
Consider `COc1ccc2c(N3CCC4(CC3)CCN([S@@](C)(=N)=O)C4)ccnc2c1` [Compound 55b], for which the results for the IC50 in assay [1] (setting [7]) and in assay [1] (setting [8]) were 10 to 1000 nM and 45 nM, respectively. Further, the Ki was 3 to 300 nM in assay [2] (setting [9]) and 7.3 nM in assay [2] (setting [10]).
The corresponding values for `COc1ccc2c(Oc3ccc([S@](=N)(=O)C4CC4)cc3)ccnc2c1` [Compound 60b] are 10 to 1000 nM, 520 nM, 3 to 300 nM and 93 nM.
Consider `COc1ccc2c(N3CCC(CCS(C)(=N)=O)CC3)ccnc2c1` (stereo not shown) [Compound 69, imino(2-(1-(7-methoxyquinolin-4-yl)piperidin-4-yl)ethyl)(methyl)-λ^6-sulfanone], for which the IC50 in assay [1] (setting [3]) is 10 to 1000 nM; in assay [1] (setting [4]), 55 nM. For the same compound, the Ki in assay [2] (setting [5]) was 3 to 300 nM; in assay [2] (setting [6]), 10 nM.
As to `COc1ccc2c(NCc3ccc(S(C)(=N)=O)cc3)ccnc2c1` (stereo not shown) [Compound 74, imino(4-(((7-methoxyquinolin-4-yl)amino)methyl)phenyl)(methyl)-λ^6-sulfanone], the figures for the IC50 in assay [1] (setting [3]) and in assay [1] (setting [4]) were 10 to 1000 nM and 11 nM, respectively. Also, the results for the Ki in assay [2] (setting [5]) and in assay [2] (setting [6]) were less than 3 nM and 1.7 nM, respectively.
As for `COc1ccc2c(OCc3ccc([S@](C)(=N)=O)cc3)ccnc2c1` [Compound 75b], the IC50 in assay [1] (setting [7]) is more than 1000 nM. Besides, the Ki in assay [2] (setting [9]) is 3 to 300 nM; in assay [2] (setting [10]) it was 98 nM.
As to `COc1ccc2c(Oc3ccc(CS(C)(=N)=O)cc3)ccnc2c1` (stereo not shown) [Compound 79, imino(4-((7-methoxyquinolin-4-yl)oxy)benzyl)(methyl)-λ^6-sulfanone], the values for the IC50 in assay [1] (setting [3]) and in assay [1] (setting [4]) were 10 to 1000 nM and 740 nM, respectively. For the same compound, the Ki was 3 to 300 nM in assay [2] (setting [5]) and 220 nM in assay [2] (setting [6]).
On to `COc1ccc2c(Oc3ccc([S@](C)(=N)=O)cc3)ccnc2c1` [Compound 80b], for which the figures for the IC50 in assay [1] (setting [7]) and in assay [1] (setting [8]) were 10 to 1000 nM and 180 nM, respectively. Besides, the figures for the Ki in assay [2] (setting [9]) and in assay [2] (setting [10]) were 3 to 300 nM and 13 nM, respectively.
With `COc1cccc2c(Oc3ccc(S(C)(=N)=O)cc3)ncnc12` (stereo not shown) [Compound 84, imino(4-((8-methoxyquinazolin-4-yl)oxy)phenyl)(methyl)-λ^6-sulfanone], the IC50 in assay [1] (setting [4]) is 1300 nM; in assay [1] (setting [7]), more than 1000 nM. Further, the Ki in assay [2] (setting [5]) is 3 to 300 nM; in assay [2] (setting [6]), 210 nM.
Turning to `COc1ccc2c(-c3ccc(CCS(C)(=N)=O)cc3)ccnc2c1` (stereo not shown) [Compound 98, imino(4-(7-methoxyquinolin-4-yl)phenethyl)(methyl)-λ^6-sulfanone], the IC50 was 10 to 1000 nM in assay [1] (setting [3]) and 140 nM in assay [1] (setting [4]). In addition, the Ki in assay [2] (setting [5]) was 3 to 300 nM; in assay [2] (setting [6]), 25 nM.
Take `CC[S@@](=N)(=O)c1ccc(Oc2ccnc3cc(OC)ccc23)cc1` [Compound 103a]: the IC50 in assay [1] (setting [7]) was more than 1000 nM; in assay [1] (setting [8]) it was 1600 nM. For the same compound, the Ki was more than 300 nM in assay [2] (setting [9]) and 450 nM in assay [2] (setting [10]).
The corresponding values for `COc1cc2nccc(Oc3ccc([S@@](C)(=N)=O)cc3)c2cc1F` [Compound 114b] are 10 to 1000 nM, 77 nM, 3 to 300 nM and more than 25 nM.
